{"source": "patent US20200231614A1", "about": "“PSMA TARGETED RADIOHALOGENATED UREAS FOR CANCER RADIOTHERAPY” (THE JOHNS HOPKINS UNIVERSITY, priority 2015, published 2020)", "key": {"[1]": {"test_system": "PSMA positive cells", "assay": "In vitro radiotoxicity (cell kill)", "settings": "vs. free [^211At]astatide (FIG. 5B)"}, "[2]": {"test_system": "PSMA + PC-3 PiP and PSMA − PC-3 flu tumor xenografts", "settings": "for Biodistribution: PC-3 PiP: PSMA+ tumor xenograft; for Biodistribution: PC-3 flu: PSMA− tumor xenograft"}, "[3]": {"test_system": "PSMA+(PIP) tumors and PSMA−(Flu) tumors", "format": "in vivo", "settings": "3 to 19 days after single-bolus injection (20 μCi), PSMA+(PIP) vs PSMA−(Flu) tumors"}, "[4]": {"test_system": "LNCaP cells", "assay": "Uptake by LNCaP cells in presence and absence of PSMA inhibitor", "settings": "2 h and 4 h, presence and absence of PSMA inhibitor 2-PSMA (FIG. 5A)"}, "[5]": {"biological_target": "PSMA (Homo sapiens, UniProt Q04609)", "sequence (Q04609 whole entry)": "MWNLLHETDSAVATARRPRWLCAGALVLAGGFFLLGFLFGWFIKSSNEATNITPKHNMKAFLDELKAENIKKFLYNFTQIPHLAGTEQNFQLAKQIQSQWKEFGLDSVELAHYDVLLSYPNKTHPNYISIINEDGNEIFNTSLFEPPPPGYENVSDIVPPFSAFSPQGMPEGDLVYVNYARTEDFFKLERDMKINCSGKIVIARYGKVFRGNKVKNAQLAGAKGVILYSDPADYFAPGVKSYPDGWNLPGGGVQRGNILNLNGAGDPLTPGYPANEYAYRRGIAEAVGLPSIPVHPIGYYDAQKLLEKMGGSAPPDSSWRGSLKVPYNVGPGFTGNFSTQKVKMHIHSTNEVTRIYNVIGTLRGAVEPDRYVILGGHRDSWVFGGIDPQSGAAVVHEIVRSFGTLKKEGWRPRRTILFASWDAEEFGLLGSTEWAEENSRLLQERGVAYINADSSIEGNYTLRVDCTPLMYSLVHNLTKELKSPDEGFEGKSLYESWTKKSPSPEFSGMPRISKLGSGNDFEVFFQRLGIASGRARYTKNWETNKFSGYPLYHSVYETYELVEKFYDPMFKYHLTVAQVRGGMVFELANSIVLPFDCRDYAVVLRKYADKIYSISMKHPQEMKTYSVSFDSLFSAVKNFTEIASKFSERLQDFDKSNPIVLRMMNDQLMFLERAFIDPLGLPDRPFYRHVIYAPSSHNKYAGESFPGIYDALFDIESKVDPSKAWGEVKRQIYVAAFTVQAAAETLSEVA", "assay": "PSMA binding affinity (Ki)", "settings": "measured Ki, Table 11", "from_the_text": "Lysine glutamate ureas compounds for radiotherapy are disclosed in FIG. 2."}, "[6]": {"settings": "18 H post-injection, comparative Table 13"}}, "note": "Like-named read-outs stand apart in the source and are kept apart here."}
{"smiles": "O=C(O)CC[C@H](NC(=O)NC(CCCCNC(=O)c1ccc([211At])cc1)C(=O)O)C(=O)O", "note": "(stereo partly drawn) [[^211At]YC-I-27, (2S)-2-(3-(1-Carboxy-5-(4-[^211At]asatatobenzamido)pentyl)ureido)pentanedioic Acid]", "values": [{"measurement": "Cell kill", "setting": "[1]", "result": "effectively kill cell relative to the untargeted alpha emitter"}, {"measurement": "Biodistribution: Sm int.", "setting": "[2]; 1 H post-injection", "result": "3.67 ± 0.65", "unit": "% ID/g"}, {"measurement": "Biodistribution: bladder", "setting": "[2]; 1 H post-injection", "result": "5.45 ± 2.57", "unit": "% ID/g"}, {"measurement": "Biodistribution: blood", "setting": "[2]; 1 H post-injection", "result": "1.67 ± 0.32", "unit": "% ID/g"}, {"measurement": "Biodistribution: heart", "setting": "[2]; 1 H post-injection", "result": "2.36 ± 0.48", "unit": "% ID/g"}, {"measurement": "Biodistribution: kidney", "setting": "[2]; 1 H post-injection", "result": "71.5 ± 12.0", "unit": "% ID/g"}, {"measurement": "Biodistribution: liver", "setting": "[2]; 1 H post-injection", "result": "2.11 ± 0.65", "unit": "% ID/g"}, {"measurement": "Biodistribution: lung", "setting": "[2]; 1 H post-injection", "result": "5.82 ± 1.28", "unit": "% ID/g"}, {"measurement": "Biodistribution: muscle", "setting": "[2]; 1 H post-injection", "result": "0.95 ± 0.15", "unit": "% ID/g"}, {"measurement": "Biodistribution: spleen", "setting": "[2]; 1 H post-injection", "result": "29.2 ± 10.2", "unit": "% ID/g"}, {"measurement": "Biodistribution: stomach", "setting": "[2]; 1 H post-injection", "result": "10.1 ± 1.66", "unit": "% ID/g"}, {"measurement": "Biodistribution: thyroid", "setting": "[2]; 1 H post-injection", "result": "3.68 ± 1.10", "unit": "% ID/g"}, {"measurement": "Biodistribution: Sm int.", "setting": "[2]; 2 H post-injection", "result": "2.08 ± 0.41", "unit": "% ID/g"}, {"measurement": "Biodistribution: bladder", "setting": "[2]; 2 H post-injection", "result": "4.55 ± 0.86", "unit": "% ID/g"}, {"measurement": "Biodistribution: blood", "setting": "[2]; 2 H post-injection", "result": "1.26 ± 0.15", "unit": "% ID/g"}, {"measurement": "Biodistribution: heart", "setting": "[2]; 2 H post-injection", "result": "1.79 ± 0.31", "unit": "% ID/g"}, {"measurement": "Biodistribution: kidney", "setting": "[2]; 2 H post-injection", "result": "60.2 ± 6.16", "unit": "% ID/g"}, {"measurement": "Biodistribution: liver", "setting": "[2]; 2 H post-injection", "result": "1.58 ± 0.21", "unit": "% ID/g"}, {"measurement": "Biodistribution: lung", "setting": "[2]; 2 H post-injection", "result": "6.30 ± 1.57", "unit": "% ID/g"}, {"measurement": "Biodistribution: muscle", "setting": "[2]; 2 H post-injection", "result": "0.81 ± 0.12", "unit": "% ID/g"}, {"measurement": "Biodistribution: spleen", "setting": "[2]; 2 H post-injection", "result": "20.3 ± 5.21", "unit": "% ID/g"}, {"measurement": "Biodistribution: stomach", "setting": "[2]; 2 H post-injection", "result": "9.29 ± 2.86", "unit": "% ID/g"}, {"measurement": "Biodistribution: thyroid", "setting": "[2]; 2 H post-injection", "result": "3.56 ± 0.95", "unit": "% ID/g"}, {"measurement": "tumor/kidney ratio", "setting": "[2]; 2 H post-injection", "result": 0.3}, {"measurement": "Biodistribution: Sm int.", "setting": "[2]; 4 H post-injection", "result": "1.85 ± 0.23", "unit": "% ID/g"}, {"measurement": "Biodistribution: bladder", "setting": "[2]; 4 H post-injection", "result": "4.17 ± 0.74", "unit": "% ID/g"}, {"measurement": "Biodistribution: blood", "setting": "[2]; 4 H post-injection", "result": "0.99 ± 0.12", "unit": "% ID/g"}, {"measurement": "Biodistribution: heart", "setting": "[2]; 4 H post-injection", "result": "1.65 ± 0.39", "unit": "% ID/g"}, {"measurement": "Biodistribution: kidney", "setting": "[2]; 4 H post-injection", "result": "60.2 ± 11.5", "unit": "% ID/g"}, {"measurement": "Biodistribution: liver", "setting": "[2]; 4 H post-injection", "result": "1.63 ± 0.10", "unit": "% ID/g"}, {"measurement": "Biodistribution: lung", "setting": "[2]; 4 H post-injection", "result": "5.54 ± 1.79", "unit": "% ID/g"}, {"measurement": "Biodistribution: muscle", "setting": "[2]; 4 H post-injection", "result": "0.72 ± 0.14", "unit": "% ID/g"}, {"measurement": "Biodistribution: spleen", "setting": "[2]; 4 H post-injection", "result": "20.3 ± 3.55", "unit": "% ID/g"}, {"measurement": "Biodistribution: stomach", "setting": "[2]; 4 H post-injection", "result": "13.3 ± 3.12", "unit": "% ID/g"}, {"measurement": "Biodistribution: thyroid", "setting": "[2]; 4 H post-injection", "result": "3.83 ± 1.18", "unit": "% ID/g"}, {"measurement": "Biodistribution: Sm int.", "setting": "[2]; 18 H post-injection", "result": "1.08 ± 0.10", "unit": "% ID/g"}, {"measurement": "Biodistribution: bladder", "setting": "[2]; 18 H post-injection", "result": "2.51 ± 0.39", "unit": "% ID/g"}, {"measurement": "Biodistribution: blood", "setting": "[2]; 18 H post-injection", "result": "0.53 ± 0.05", "unit": "% ID/g"}, {"measurement": "Biodistribution: heart", "setting": "[2]; 18 H post-injection", "result": "1.10 ± 0.16", "unit": "% ID/g"}, {"measurement": "Biodistribution: kidney", "setting": "[2]; 18 H post-injection", "result": "57.4 ± 7.36", "unit": "% ID/g"}, {"measurement": "Biodistribution: liver", "setting": "[2]; 18 H post-injection", "result": "0.82 ± 0.07", "unit": "% ID/g"}, {"measurement": "Biodistribution: lung", "setting": "[2]; 18 H post-injection", "result": "3.61 ± 0.40", "unit": "% ID/g"}, {"measurement": "Biodistribution: muscle", "setting": "[2]; 18 H post-injection", "result": "0.49 ± 0.27", "unit": "% ID/g"}, {"measurement": "Biodistribution: spleen", "setting": "[2]; 18 H post-injection", "result": "8.01 ± 2.04", "unit": "% ID/g"}, {"measurement": "Biodistribution: stomach", "setting": "[2]; 18 H post-injection", "result": "9.42 ± 3.04", "unit": "% ID/g"}, {"measurement": "Biodistribution: thyroid", "setting": "[2]; 18 H post-injection", "result": "6.50 ± 1.97", "unit": "% ID/g"}, {"measurement": "Non-target organ uptake: spleen", "setting": "[2]; [6]", "result": 8.0, "unit": "% D/g"}, {"measurement": "Non-target organ uptake: stomach", "setting": "[2]; [6]", "result": 9.4, "unit": "% D/g"}, {"measurement": "Non-target organ uptake: thyroid", "setting": "[2]; [6]", "result": 6.5, "unit": "% D/g"}, {"measurement": "tumor/kidney ratio", "setting": "[2]; 21 H post-injection", "result": 0.5}, {"measurement": "Biodistribution: PC-3 PiP", "setting": "[2]; 1 H post-injection", "result": "17.9 ± 2.98", "unit": "% ID/g"}, {"measurement": "Biodistribution: PC-3 PiP", "setting": "[2]; 2 H post-injection", "result": "20.7 ± 3.42", "unit": "% ID/g"}, {"measurement": "Biodistribution: PC-3 PiP", "setting": "[2]; 4 H post-injection", "result": "18.3 ± 2.90", "unit": "% ID/g"}, {"measurement": "Biodistribution: PC-3 PiP", "setting": "[2]; 18 H post-injection", "result": "31.1 ± 9.78", "unit": "% ID/g"}, {"measurement": "Biodistribution: PC-3 flu", "setting": "[2]; 1 H post-injection", "result": "2.18 ± 0.44", "unit": "% ID/g"}, {"measurement": "Biodistribution: PC-3 flu", "setting": "[2]; 2 H post-injection", "result": "1.81 ± 0.27", "unit": "% ID/g"}, {"measurement": "Biodistribution: PC-3 flu", "setting": "[2]; 4 H post-injection", "result": "1.53 ± 0.22", "unit": "% ID/g"}, {"measurement": "Biodistribution: PC-3 flu", "setting": "[2]; 18 H post-injection", "result": "1.17 ± 0.20", "unit": "% ID/g"}, {"measurement": "PSMA positive tumor uptake (in words)", "setting": "[2]; biodistributions of Tables 2, 3, 9, 10", "result": "demonstrated PSMA positive tumor uptake"}, {"measurement": "Tumor growth inhibition", "setting": "[3]", "result": "PSMA Specific Tumor Growth Inhibition"}, {"measurement": "Uptake by LNCaP cells", "setting": "[4]", "result": "is blocked, indicating target (PSMA) specific binding"}]}
{"smiles": "O=C(O)CC[C@H](NC(=O)N[C@@H](CCC(=O)NCCc1ccc(I)cc1)C(=O)O)C(=O)O", "note": "[HS-549, (((5)-1-Carboxy-4-((4-iodophenethyl)amino)-4-oxobutyl)carbamoyl)-L-glutamic Acid]", "values": [{"measurement": "Ki", "setting": "[5]", "result": 0.01, "unit": "nM"}]}
